In the supplement of paper PMC10307832:

What was measured:
Assay in all cases: relative viability (nuclei count vs DMSO), 5 days (fraction); higher = more cells survive
[1] = compound: CC1=CC(=CC=C1)NC2=NC(=CS2)C3=CC=NC=C3 + CS(=O)(=O)CCNCc1ccc(-c2ccc3ncnc(Nc4ccc(OCc5cccc(F)c5)c(Cl)c4)c3c2)o1 [Lapatinib] (partner 2 µM)
In short: (§1)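 Lung cancer cell lines were pin-tool dosed in 1536-well plates on the day after seeding, with either a lone drug or a fixed anchor-drug dose plus five library-drug doses (not always all listed) in √10 steps. Nuclei were counted on 4× images after 5 days. Relative viability is the ratio of treated-well to vehicle-well nuclei counts, with each value a median of duplicate plates.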

[2] = compound: CC1=CC(=CC=C1)NC2=NC(=CS2)C3=CC=NC=C3 + Cc1nc(Nc2ncc(C(=O)Nc3c(C)cccc3Cl)s2)cc(N2CCN(CCO)CC2)n1 [Dasatinib] (partner 0.075 µM)
In short: as §1

[3] = compound: Cc1ccc(NC(=O)c2ccc(CN3CCN(C)CC3)cc2)cc1Nc1nc(-c2cccnc2)cs1 [Masitinib] + C[C@@H](Oc1cc(-c2cnn(C3CCNCC3)c2)cnc1N)c1c(Cl)ccc(F)c1Cl [Crizotinib] (partner 1 µM)
In short: as §1

[4] = compound: Cc1ccc(NC(=O)c2ccc(CN3CCN(C)CC3)cc2)cc1Nc1nc(-c2cccnc2)cs1 [Masitinib] + O=C(c1cc(Cc2n[nH]c(=O)c3ccccc23)ccc1F)N1CCN(C(=O)C2CC2)CC1 [Olaparib] (partner 8 µM)
In short: as §1

| Cell Line | relative viability ([1]; first compound 0.08 µM) | relative viability ([1]; first compound 0.253 µM) | relative viability ([1]; first compound 0.8 µM) | relative viability ([1]; first compound 2.53 µM) | relative viability ([1]; first compound 8 µM) | relative viability ([2]; first compound 0.08 µM) | relative viability ([2]; first compound 0.253 µM) | relative viability ([2]; first compound 0.8 µM) | relative viability ([2]; first compound 2.53 µM) | relative viability ([2]; first compound 8 µM) | relative viability ([3]; first compound 0.01 µM) | relative viability ([3]; first compound 0.03162 µM) | relative viability ([3]; first compound 0.1 µM) | relative viability ([3]; first compound 0.3162 µM) | relative viability ([3]; first compound 1 µM) | relative viability ([4]; first compound 0.01 µM) | relative viability ([4]; first compound 0.03162 µM) | relative viability ([4]; first compound 0.1 µM) | relative viability ([4]; first compound 0.3162 µM) | relative viability ([4]; first compound 1 µM) |
| --- | --- | --- | --- | --- | --- | --- | --- | --- | --- | --- | --- | --- | --- | --- | --- | --- | --- | --- | --- | --- |
| NCI-H2087 | 0.823 | 0.788 | 0.846 | 1.11 | 0.829 | 0.67 | 0.804 | 0.742 | 0.778 | 0.796 | 0.669 | 0.913 | 0.899 | 0.891 | 0.951 | 0.73 | 0.583 | 0.63 | 0.523 | 0.7 |
| NCI-H2126 | 0.593 | 0.667 | 0.68 | 0.594 | 0.572 | 0.533 | 0.433 | 0.505 | 0.466 | 0.4 | 1.02 | 1.09 | 1.05 | 1.07 | 0.993 | 0.916 | 0.965 | 1 | 0.992 | 0.991 |
| NCI-H2170 | 0.259 | 0.255 | 0.255 | 0.275 | 0.264 | 0.581 | 0.574 | 0.609 | 0.564 | 0.489 | 1.38 | 1.18 | 1.37 | 1.3 | 1.11 | 0.546 | 0.698 | 0.672 | 0.576 | 0.559 |
| NCI-H2228 | 0.948 | 1.11 | 0.884 | 0.823 | 0.883 | 0.402 | 0.605 | 0.468 | 0.433 | 0.445 | 0.417 | 0.481 | 0.717 | 0.415 | 0.669 | 0.756 | 0.589 | 0.622 | 0.548 | 0.661 |
| NCI-H2347 | 0.731 | 0.767 | 0.635 | 0.95 | 0.757 | 0.274 | 0.301 |  | 0.388 | 0.389 | 0.731 | 0.759 | 0.891 | 0.707 | 0.688 | 0.507 | 0.591 | 0.597 | 0.621 | 0.53 |
| NCI-H2405 | 0.853 | 1 | 0.919 | 0.936 | 0.813 | 0.202 | 0.176 | 0.15 | 0.16 | 0.22 | 0.77 | 0.784 | 0.848 | 0.802 | 0.746 | 0.78 | 0.816 | 0.873 | 0.722 | 0.827 |
| NCI-H3122 | 1.05 | 1.08 | 1.05 | 1.09 | 1.08 | 0.78 | 0.821 | 1.05 | 0.819 | 0.77 | 0.26 | 0.252 | 0.306 | 0.217 | 0.253 | 0.64 | 0.604 | 0.703 | 0.589 | 0.615 |
| PC-3 [JPC-3] | 0.36 | 0.375 | 0.453 | 0.362 | 0.467 | 0.974 | 0.95 | 0.881 | 0.87 | 0.939 | 1.02 | 0.974 | 0.975 | 0.968 | 1.01 | 0.985 | 1.11 | 1.22 | 0.932 | 1.11 |
| PC-14 | 0.295 | 0.258 | 0.338 | 0.312 | 0.292 | 0.237 | 0.247 | 0.27 | 0.225 | 0.178 | 0.787 | 0.817 | 0.901 | 0.723 | 0.829 | 0.277 | 0.256 | 0.249 | 0.232 | 0.204 |
| RERF-LC-KJ | 0.73 | 0.766 | 0.693 | 0.741 | 0.728 | 0.533 | 0.694 | 0.64 | 0.573 | 0.515 | 0.853 | 0.901 | 0.79 | 0.755 | 0.759 | 0.935 | 0.916 | 0.978 | 0.672 | 0.852 |
| SK-LU-1 | 0.994 | 1.05 |  | 0.835 | 0.937 | 0.144 | 0.201 |  | 0.219 | 0.224 | 0.832 | 0.884 | 0.983 | 1.01 | 0.756 | 0.419 | 0.486 | 0.436 | 0.524 | 0.497 |
| SK-MES-1 | 0.449 | 0.416 | 0.378 | 0.432 | 0.369 | 0.276 | 0.256 | 0.327 | 0.279 | 0.235 | 0.912 | 1.01 | 1.02 | 1.02 | 0.983 | 0.775 | 0.761 | 0.798 | 0.629 | 0.653 |
| SW 1573 | 1.13 | 0.977 | 1.15 | 1.38 | 1.08 | 0.612 | 0.369 | 0.612 | 0.603 | 0.432 | 0.761 | 0.786 | 0.754 | 0.718 | 0.778 | 0.505 | 0.472 | 0.591 | 0.431 | 0.453 |
| UMC-11 | 0.839 | 0.85 | 0.885 | 0.934 | 1.02 | 0.477 | 0.494 | 0.468 | 0.481 | 0.534 | 0.467 | 0.677 | 0.706 | 0.571 | 0.691 | 0.354 | 0.371 | 0.372 | 0.376 | 0.398 |
